Converted amounts (≈) assume the structure as drawn. The source made the active and inactive calls. No cut-off for these calls is given here.
Experiments:
[1] = Cytotoxicity against human WI38 cells assessed as growth inhibition after 48 hrs by sulforhodamine B assay; assay type: cell-based; settings: WI-38, 48 h
[2] = system: Plasmodium falciparum; assay: Antimalarial activity against chloroquine-sensitive asexual Plasmodium falciparum NF54 infected in human erythrocytes assessed as inhibition of parasite proliferation at 1 uM after 96 hrs by SYBR Green I fluorescence based assay relative to control; assay type: functional; settings: NF54, 96 h
[3] = system: Plasmodium falciparum; assay: Antimalarial activity against chloroquine-sensitive asexual Plasmodium falciparum NF54 infected in human erythrocytes assessed as inhibition of parasite proliferation at 5 uM after 96 hrs by SYBR Green I fluorescence based assay relative to control; assay type: functional; settings: NF54, 96 h
[4] = system: Plasmodium falciparum; assay: Antimalarial activity against chloroquine-sensitive asexual Plasmodium falciparum NF54 infected in human erythrocytes assessed as inhibition of parasite proliferation after 96 hrs by SYBR Green I fluorescence based assay; assay type: functional, organism-based; settings: NF54, 96 h
[5] = Resistance index, ratio of IC50 for multi-drug-resistant Plasmodium falciparum K1 infected in human erythrocytes to IC50 for chloroquine-sensitive asexual Plasmodium falciparum NF54 infected in human erythrocytes; assay type: functional
[6] = system: Plasmodium falciparum; assay: Antimalarial activity against multidrug resistant Plasmodium falciparum W2 infected in human erythrocytes assessed as inhibition of parasite proliferation after 96 hrs by SYBR Green I fluorescence based assay; assay type: functional, organism-based; settings: W2, 96 h
[7] = system: Plasmodium falciparum; assay: Antimalarial activity against multidrug resistant Plasmodium falciparum K1 infected in human erythrocytes assessed as inhibition of parasite proliferation after 96 hrs by SYBR Green I fluorescence based assay; assay type: functional, organism-based; settings: K1, 96 h
[8] = Resistance index, ratio of IC50 for multi-drug-resistant Plasmodium falciparum W2 infected in human erythrocytes to IC50 for chloroquine-sensitive asexual Plasmodium falciparum NF54 infected in human erythrocytes; assay type: functional
[9] = system: Plasmodium falciparum; assay: Antimalarial activity against chloroquine-sensitive asexual Plasmodium falciparum NF54 infected in human erythrocytes assessed as inhibition of parasite proliferation at 100 to 500 nM after 96 hrs by SYBR Green I fluorescence based assay; assay type: functional, organism-based
[10] = Selectivity index, ratio of IC50 for human WI38 cells to IC50 chloroquine-sensitive asexual Plasmodium falciparum NF54 infected in human erythrocytes; assay type: toxicity, cell-based, WI-38; settings: read-out: Ratio IC50
[11] = Acidic dissociation constant, pKa of compound; assay type: physicochemical
[12] = Solubility of compound in water; assay type: physicochemical
[13] = Lipophilicity, log P of compound; assay type: physicochemical; settings: octanol/water

CC[C@H]1CN2CCc3cc(OC)c(OC)cc3[C@@H]2C[C@@H]1C[C@H]1NCCc2cc(OC)c(OC)cc21 [EMETINE]
IC50 [1]: 50 nM

CCCCCCCCCCOc1cc2c(=O)c(C(=O)NCc3ccco3)c[nH]c2cc1OCC
inhibition at 1 µM [2]: > 70% | inhibition at 5 µM [3]: > 50%

CCCCCCCCCCOc1cc2c(=O)c(C(=O)N3CCOCC3)cn(C(C)=O)c2cc1OCC
inhibition at 1 µM [2]: > 70% | inhibition at 5 µM [3]: > 50%

CCCCCCCCCCOc1cc2c(=O)c(C(=O)NCCN(C)C)c[nH]c2cc1OCC
inhibition at 1 µM [2]: > 70% | inhibition at 5 µM [3]: > 50%

CCCCCCCCCCOc1cc2c(=O)c(C(=O)OCC)cn(C(=O)N3CCCCC3)c2cc1OCC
IC50 [4]: 18.3 nM | Ratio IC50 [5]: 4.9 | IC50 [6]: 28.2 nM | inhibition at 1 µM [2]: > 70% | IC50 [7]: 89.1 nM | Ratio IC50 [8]: 1.5 | inhibition [9]: Active | inhibition at 5 µM [3]: > 50% | selectivity ratio [10]: 465 | IC50 [1]: 8500 nM

CCCCCCCCCCOc1cc2c(=O)c(C(=O)OCC)cn(S(=O)(=O)C3CC3)c2cc1OCC
inhibition at 1 µM [2]: > 70% | inhibition at 5 µM [3]: > 50%

C[C@H]1[C@H](OC(=O)CCC(=O)O)O[C@@H]2O[C@@]3(C)CC[C@H]4[C@H](C)CC[C@@H]1[C@@]24OO3 [ARTESUNATE]
IC50 [4]: 7.88 nM | Ratio IC50 [5]: 1.4 | IC50 [6]: 6.77 nM | IC50 [7]: 8.97 nM | Ratio IC50 [8]: 0.8 | selectivity ratio [10]: > 12700 | IC50 [1]: > 100000 nM

CCCCCCCCCCOc1cc2c(=O)c(C(=O)OCC)cn(C(=O)CC)c2cc1OCC
IC50 [4]: 15.4 nM | Ratio IC50 [5]: 3.2 | IC50 [6]: 11.5 nM | inhibition at 1 µM [2]: > 70% | IC50 [7]: 48.9 nM | Ratio IC50 [8]: 0.8 | inhibition [9]: Active | inhibition at 5 µM [3]: > 50% | selectivity ratio [10]: > 6490 | IC50 [1]: > 100000 nM

CCCCCCCCCCOc1cc2c(=O)c(C(=O)NCc3ccc(F)cc3)c[nH]c2cc1OCC
IC50 [4]: 33.1 nM | Ratio IC50 [5]: 1.9 | IC50 [6]: 8.6 nM | inhibition at 1 µM [2]: > 70% | IC50 [7]: 63.1 nM | Ratio IC50 [8]: 0.2 | inhibition [9]: Active | inhibition at 5 µM [3]: > 50% | selectivity ratio [10]: > 3020 | IC50 [1]: > 100000 nM

CCCCCCCCCCOc1cc2c(O)c(C(=O)OCC)cnc2cc1OCC [DECOQUINATE]
IC50 [4]: 26.6 nM | pKa [11]: 9.81 | solubility [12]: 0.06 µg/mL (≈ 0.144 µM) | Ratio IC50 [5]: 2.4 | IC50 [6]: 15.4 nM | inhibition at 1 µM [2]: > 70% | IC50 [7]: 64.9 nM | logP [13]: 8.19 | Ratio IC50 [8]: 0.6 | inhibition [9]: Active | inhibition at 5 µM [3]: > 50% | selectivity ratio [10]: > 3760 | IC50 [1]: > 100000 nM

CO[C@H]1O[C@@H]2O[C@@]3(C)CC[C@H]4[C@H](C)CC[C@@H]([C@H]1C)[C@@]24OO3 [ARTEMETHER]
IC50 [4]: 5.77 nM | Ratio IC50 [5]: 1.3 | IC50 [6]: 4.5 nM | IC50 [7]: 7.26 nM | Ratio IC50 [8]: 0.8

CCCCCCCCCCOc1cc2c(=O)c(C(=O)NCCOCCO)c[nH]c2cc1OCC
IC50 [4]: 40.4 nM | Ratio IC50 [5]: 1.6 | IC50 [6]: 18.5 nM | inhibition at 1 µM [2]: > 70% | IC50 [7]: 64.8 nM | Ratio IC50 [8]: 0.5 | inhibition [9]: Active | inhibition at 5 µM [3]: > 50% | selectivity ratio [10]: 1090 | IC50 [1]: 43900 nM

CCCCCCCCCCOc1cc2c(=O)c(C(=O)NCCOC)c[nH]c2cc1OCC
inhibition at 1 µM [2]: > 70% | inhibition at 5 µM [3]: > 50%

CCCCCCCCCCOc1cc2c(=O)c(C(=O)N3CCOCC3)cn(S(=O)(=O)C3CC3)c2cc1OCC
inhibition at 1 µM [2]: > 70% | inhibition at 5 µM [3]: > 50%

CCCCCCCCCCOc1cc2c(=O)c(C(=O)NCc3ccccc3F)c[nH]c2cc1OCC
inhibition at 1 µM [2]: > 70% | inhibition at 5 µM [3]: > 50%

CCCCCCCCCCOc1cc2c(=O)c(C(=O)NCCCn3ccnc3)c[nH]c2cc1OCC
inhibition at 1 µM [2]: > 70% | inhibition at 5 µM [3]: > 50%

CCCCCCCCCCOc1cc2c(=O)c(C(=O)OCC)cn(C(C)=O)c2cc1OCC
IC50 [4]: 4.9 nM | Ratio IC50 [5]: 2.5 | IC50 [6]: 8.5 nM | inhibition at 1 µM [2]: > 70% | IC50 [7]: 12 nM | Ratio IC50 [8]: 1.7 | inhibition [9]: Active | inhibition at 5 µM [3]: > 50% | selectivity ratio [10]: > 20400 | IC50 [1]: > 100000 nM

CCCCCCCCCCOc1cc2c(=O)c(C(=O)OCC)cn(C(=O)N(C)C)c2cc1OCC
inhibition at 1 µM [2]: > 70% | inhibition at 5 µM [3]: > 50%

CCCCCCCCCCOc1cc2c(=O)c(C(=O)OCC)cn(S(C)(=O)=O)c2cc1OCC
inhibition at 1 µM [2]: > 70% | inhibition at 5 µM [3]: > 50%

From ChEMBL document CHEMBL3808317, “Straightforward conversion of decoquinate into inexpensive tractable new derivatives with significant antimalarial activities” (Bioorg Med Chem Lett, 2016)
